Where no end group is shown, it is not given here.
Columns and labels:
Assay type in all cases: cell-based, human
[1] = tested on: CD49c-positive cell aggregates reaggregated after FACS purification from hESC sample; experiment: ACTH secretion test with CRH receptor inhibitor under standard and low glucose; conditions: 3 hours pretreatment, vs 0.1% DMSO, 30 minutes, aggregates cultured 13-15 days
Description: As a test method, a cell aggregate that was reaggregated after FACS purification from a hESC sample and cultured for 13-15 days was used. Before secretion measurement, cells were pretreated for 3 hours with maintenance medium (gfCDM+20% KSR+[…]) containing antalarmin […] or the same amount of solvent (0.1% DMSO) as a control. Each pretreated cell aggregate was transferred to a 1.5 ml microtube, incubated in 250 μl of standard glucose medium (glucose-free DMEM+5.56 mM D-glucose+4.44 mM D-mannitol) at 37° C. for 30 minutes, and the medium was collected. Subsequently, the aggregate was incubated in 250 μl of low glucose medium (glucose-free DMEM+0.56 mM D-glucose+9.44 mM D-mannitol) at 37° C. for 30 minutes, and then the medium was collected. Antalarmin or DMSO was continuously added to the standard glucose medium and low glucose medium described above. The results of measuring the ACTH concentration in the collected medium using the ECLIA method used in clinical tests are shown. It was confirmed that ACTH secretion increased under low glucose conditions (10 mg/dL) compared to standard glucose conditions (100 mg/dL). […]
(§1) Cell aggregates that were reaggregated after MACS or FACS purification and cultured for 8 days or more were used. […] ACTH concentration in the collected medium etc., was measured by the ECLIA method used in clinical testing. […]

[2] = tested on: CD49c-positive cell aggregates reaggregated after FACS purification from hESC sample; experiment: ACTH secretion test with secretion suppressor cortisol; conditions: CD49c-positive cells (FACS, hESC sample), cultured 13 days, 3 hours pretreatment, Hydrocortisone 20 µg/ml vs 0.1% DMSO, standard glucose medium 30 minutes, ECLIA
Description: As a test method, a cell aggregate that was reaggregated after FACS purification from a hESC sample and cultured for 12 days was used. Each cell aggregate was transferred to a 1.5 ml microtube, incubated in 250 μl of standard glucose medium (glucose-free DMEM+5.56 mM D-glucose+4.44 mM D-mannitol) at 37° C. for 30 minutes, and then the medium was collected. Subsequently, the aggregate was incubated in 250 μl of standard glucose medium containing 1 μg/ml CRH (Peptide Institute, #4136-s) at 37° C. for 30 minutes, and then the medium was collected. The ACTH concentration in the collected medium was measured by the ECLIA method used in clinical testing. […] As a test method, a cell aggregate that was reaggregated after FACS purification from a hESC sample and cultured for 13 days was used. Before secretion measurement, cells were pretreated for 3 hours with maintenance medium (gfCDM+20% KSR+2 μM SAG) containing cortisol (Hydrocortisone, […]) or the same amount of solvent (0.1% DMSO) as a control. […] The ACTH concentration in the collected medium was measured by the ECLIA method used in clinical testing. […] ACTH concentration in the collected medium etc., was measured by the ECLIA method used in clinical testing. […]

[3] = tested on: cell aggregates reaggregated after MACS purification from hESC sample (CD49c-positive / CD49c-negative cells); experiment: ACTH secretion test (CRH stimulation) on reaggregates after MACS purification; conditions: 8 days after reaggregation, 5 aggregates, 1 μg/ml CRH in HBSS, 37° C., 10 minutes, ECLIA
Description: The test method used cell aggregates that were cultured for 8 days after MACS purification from a sample differentiated from hESC (also referred to as “hESC sample”) and reaggregation. 5 cell aggregates were transferred to a 1.5 ml microtube and incubated in 250 μl of HBSS(+) (Wako, #084-08965) at 37° C. for 10 minutes, and then HBSS was collected. Subsequently, HBSS was collected after incubation at 37° C. for 10 minutes in 250 μl of HBSS containing 1 μg/ml CRH (Peptide Institute, #4136-s). The ACTH concentration in the collected HBSS was measured by the ECLIA method used in clinical testing.
(§2) Cell aggregates that were reaggregated after MACS or FACS purification and cultured for 8 days or more were used. One or five cell aggregates were incubated at a predetermined temperature and for a predetermined time using a predetermined medium, etc., and then the medium and the like were collected. ACTH concentration in the collected medium etc., was measured by the ECLIA method used in clinical testing. In addition, when confirming the influence of secretion suppressing factors and CRH receptor inhibitors, pretreatment was performed for a predetermined period of time with a maintenance medium containing secretion suppressing factors and CRH receptor inhibitors before secretion measurement.

[4] = tested on: CD49c-positive cell aggregates reaggregated after FACS purification from hESC sample; experiment: ACTH secretion test (CRH stimulation) on reaggregates after FACS purification; conditions: CD49c-positive cells (FACS, hESC sample), cultured 12 days, 1 μg/ml CRH in standard glucose medium, 37° C., 30 minutes, ECLIA
Description: As a test method, a cell aggregate that was reaggregated after FACS purification from a hESC sample and cultured for 12 days was used. Each cell aggregate was transferred to a 1.5 ml microtube, incubated in 250 μl of standard glucose medium (glucose-free DMEM+5.56 mM D-glucose+4.44 mM D-mannitol) at 37° C. for 30 minutes, and then the medium was collected. Subsequently, the aggregate was incubated in 250 μl of standard glucose medium containing 1 μg/ml CRH (Peptide Institute, #4136-s) at 37° C. for 30 minutes, and then the medium was collected. The ACTH concentration in the collected medium was measured by the ECLIA method used in clinical testing. […] As a test method, a cell aggregate that was reaggregated after FACS purification from a hESC sample and cultured for 13 days was used. Before secretion measurement, cells were pretreated for 3 hours with maintenance medium (gfCDM+20% KSR+2 μM SAG) containing cortisol (Hydrocortisone, […]) or the same amount of solvent (0.1% DMSO) as a control. […] The ACTH concentration in the collected medium was measured by the ECLIA method used in clinical testing.
as §1

[5] = tested on: cell aggregates reaggregated after FACS purification from hiPSC sample (CD49c-positive / CD49c-negative cells); experiment: ACTH secretion test (CRH stimulation) on hiPSC sample reaggregates; conditions: cultured 21 days, 1 μg/ml CRH in standard glucose medium, 37° C., 30 minutes, ECLIA
Description: As a test method, a cell aggregate that was reaggregated after FACS purification from a hiPSC sample and cultured for 21 days was used. Each cell aggregate was transferred to a 1.5 ml microtube, incubated in 250 μl of standard glucose medium (glucose-free DMEM+5.56 mM D-glucose+4.44 mM D-mannitol) at 37° C. for 30 minutes, and then the medium was collected. Subsequently, the aggregate was incubated in 250 μl of standard glucose medium containing 1 μg/ml CRH (Peptide Institute, #4136-s) at 37° C. for 30 minutes, and then the medium was collected. The ACTH concentration in the collected medium was measured by the ECLIA method used in clinical testing.
as §2

## CCCCN(CC)c1nc(C)nc2c1c(C)c(C)n2-c1c(C)cc(C)cc1C [Antalarmin]
[1]; low glucose conditions (10 mg/dL)
  ACTH secretion with Antalarmin treatment: reduced ACTH secretion
[1]; standard glucose conditions (100 mg/dL)
  ACTH secretion with Antalarmin treatment: reduced ACTH secretion

## C[C@]12CCC(=O)C=C1CC[C@@H]1[C@@H]2[C@@H](O)C[C@@]2(C)[C@H]1CC[C@]2(O)C(=O)CO [cortisol, Hydrocortisone]
[2]
  ACTH secreted per cell aggregate before and after cortisol treatment: ACTH secretion was reduced

## CRH: CRH (Peptide Institute, #4136-s), a physiological secretion stimulating factor (SEEPPISLDLTFHLLREVLEMARAEQLAQQAHSNRKLMEII; ends and bridges not checked; UniProt P06850 154-194, looked up)
[3]; CD49c-negative cells (MACS, hESC sample)
  ACTH secretion before and after CRH stimulation: did not respond to CRH
[3]; CD49c-positive cells (MACS, hESC sample)
  ACTH secretion before and after CRH stimulation: increased ACTH secretion
[4]
  ACTH secretion per cell aggregate before and after CRH stimulation: ACTH secretion increases
[5]; CD49c-negative cells (FACS, hiPSC sample)
  ACTH secretion per cell aggregate before and after CRH stimulation: did not respond to CRH
[5]; CD49c-positive cells (FACS, hiPSC sample)
  ACTH secretion per cell aggregate before and after CRH stimulation: increased ACTH secretion
